Experimental findings from PubChem BioAssay AID1259411 (Chemical Carcinogenesis Research Information System (CCRIS), 2018) are described below.

The data set has as its system rodent carcinogenicity bioassays, tumor incidence. Kind of data set: CCRIS carcinogenicity studies. A digest of the protocol: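 NCI-built, expert-reviewed records of carcinogenicity and related test outcomes (mutagenicity, tumor promotion/inhibition) compiled from published and report sources, historical span 1985-2011, not updated.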

Each structure is given as a SMILES string. Activity calls are given as the source filed them. How the calls were made is not given here.

For `O[C@H]1C=CC=C[C@@H]1O`, the carcinogen call was “inactive; negative” (Species: MOUSE, Strain/Sex: SWISS/FEMALE, Route: INTRAPERITONEAL, Dose: 0, 50 UMOL ADMINISTERED AS 3 UNEQUAL DOSES (1/7, 2/7, AND 4/7 OF THE TOTAL DOSE) OVER A 2-WK PERIOD (STUDY DURATION: 28) and “inactive; negative” (Species: MOUSE, Strain/Sex: SWISS/MALE, Route: INTRAPERITONEAL, Dose: 0, 50 UMOL ADMINISTERED AS 3 UNEQUAL DOSES (1/7, 2/7, AND 4/7 OF THE TOTAL DOSE) OVER A 2-WK PERIOD (STUDY DURATION: 28).
Consider `O=C1CCCCCN1`, for which the carcinogen call (Species: MOUSE, Strain/Sex: B6C3F1/FEMALE, Route: ORAL, Dose: 0, 7500, 15000 PPM IN DIET, Dose: 0, 7500, 15000 PPM IN DIET) is “inactive; negative”; the carcinogen call (Species: MOUSE, Strain/Sex: B6C3F1/MALE, Route: ORAL, Dose: 0, 7500, 15000 PPM IN DIET, Dose: 0, 7500, 15000 PPM IN DIET) was “inactive; negative”; the carcinogen call (Species: RAT, Strain/Sex: F344/FEMALE, Route: ORAL, Dose: 0, 3750, 7500 PPM IN DIET, Dose: 0, 3750, 7500 PPM IN DIET) is “inactive; negative”; the carcinogen call (Species: RAT, Strain/Sex: F344/MALE, Route: ORAL, Dose: 0, 3750, 7500 PPM IN DIET, Dose: 0, 3750, 7500 PPM IN DIET) was “inactive; negative”.
With `O=C1C=C[C@H]2CO[C@@H]1O2`, the carcinogen call (Species: MOUSE, Strain/Sex: CD-1/FEMALE, Route: DERMAL, Dose: 0, 2.5 UMOL/0.1 DMSO 2/WK FOR 5 WK FOLLOWED 1 WK LATER BY 0.1 ML ACETONE 2/WK FOR 47 WK (STUDY DURATION: 52 WK)) is “inactive; negative”.
For the molecule `CO/N=C(/C1=NOCCO1)c1ccccc1Oc1ncnc(Oc2ccccc2Cl)c1F`, the carcinogen call is “inactive; negative” (Species: Mouse, Strain/Sex: CD-1/Female (50/Group), Route: Oral, Dose: 0, 29.5, 204.0, 1265.1 mg/kg/day of 94.3% - 94.5% fluoxastrobin in diet for 18 mo, study duration 18 mo, Dose: 0, 29.5, 204.0, 1265.1 mg/kg/day of 94.3% - 94.5% fluoxastrobin in diet for 18 mo, study duration 18 mo); “inactive; negative” (Species: Mouse, Strain/Sex: CD-1/Male (50/Group), Route: Oral, Dose: 0, 18.6, 135.4, 775.6 mg/kg/day of 94.3% - 94.5% fluoxastrobin in diet for 18 mo, study duration 18 mo, Dose: 0, 18.6, 135.4, 775.6 mg/kg/day of 94.3% - 94.5% fluoxastrobin in diet for 18 mo, study duration 18 mo); “active; positive” (Species: Rat, Strain/Sex: Wistar/Female (50/Group), Route: Oral, Dose: 0, 6.9, 35.2, 181.3, 1083.2 mg/kg/day of 94.3-94.6% fluoxastrobin in diet for 2 yr, study duration 2 yr, Dose: 0, 6.9, 35.2, 181.3, 1083.2 mg/kg/day of 94.3-94.6% fluoxastrobin in diet for 2 yr, study duration 2 yr, Tumor Site: Type of Lesion: Uterus: adenocarcinoma (highest dose only)); “inactive; negative” (Species: Rat, Strain/Sex: Wistar/Male (50/Group), Route: Oral, Dose: 0, 2.1, 5.2, 53.0, 271.9 mg/kg/day of 94.3-94.6% fluoxastrobin in diet for 2 yr, study duration 2 yr, Dose: 0, 2.1, 5.2, 53.0, 271.9 mg/kg/day of 94.3-94.6% fluoxastrobin in diet for 2 yr, study duration 2 yr).
Turning to `CN(C)C(=O)Nc1cccc(C(F)(F)F)c1`, the carcinogen call by setting is: (Species: MOUSE, Strain/Sex: B6C3F1/FEMALE, Route: ORAL, Dose: 0, 500, 1000 PPM IN DIET FOR 103 WK (STUDY DURATION: 103-105 WK), Dose: 0, 500, 1000 PPM IN DIET FOR 103 WK (STUDY DURATION: 103-105 WK)) “inactive; negative”; (Species: MOUSE, Strain/Sex: B6C3F1/FEMALE, Route: ORAL, Dose: 0, 500, 1000 PPM IN DIET FOR 103 WK (STUDY DURATION: 103-105 WK), Dose: 0, 500, 1000 PPM IN DIET FOR 103 WK (STUDY DURATION: 103-105 WK), Tumor Site: Type of Lesion: LIVER: HEPATOCELLULAR CARCINOMA OR ADENOMA) “equivocal”; (Species: Mouse, Strain/Sex: CR CD-1/Female (60/Group), Route: Oral, Dose: 0, 10, 500, 2000 ppm of 96.1% fluometuron in diet for 104 wk, study duration 104 wk, Dose: 0, 10, 500, 2000 ppm of 96.1% fluometuron in diet for 104 wk, study duration 104 wk, Tumor Site: Type of Lesion: Lymphocytic lymphoma (highest dose only)) “active; positive”; (Species: Mouse, Strain/Sex: CR CD-1/Male (60/Group), Route: Oral, Dose: 0, 10, 500, 2000 ppm of 96.1% fluometuron in diet for 104 wk, study duration 104 wk, Dose: 0, 10, 500, 2000 ppm of 96.1% fluometuron in diet for 104 wk, study duration 104 wk, Tumor Site: Type of Lesion: Lung: Primary pulmonary neoplasia) “active; positive”; (Species: RAT, Strain/Sex: F344/FEMALE, Route: ORAL, Dose: 0, 125, 250 PPM IN DIET FOR 103 WK (STUDY DURATION: 103-105 WK), Dose: 0, 125, 250 PPM IN DIET FOR 103 WK (STUDY DURATION: 103-105 WK)) “inactive; negative”; (Species: RAT, Strain/Sex: F344/MALE, Route: ORAL, Dose: 0, 125, 250 PPM IN DIET FOR 103 WK (STUDY DURATION: 103-105 WK), Dose: 0, 125, 250 PPM IN DIET FOR 103 WK (STUDY DURATION: 103-105 WK)) “inactive; negative”. Moreover, the carcinogen call was “inactive; negative” (Species: Rat, Strain/Sex: Fischer 344 CD-F/Female (60/Group), Route: Oral, Dose: 0, 10, 300, 1000 ppm of 96.1% fluometuron in diet for 2 yr, study duration 2 yr, Dose: 0, 10, 300, 1000 ppm of 96.1% fluometuron in diet for 2 yr, study duration 2 yr) and “inactive; negative” (Species: Rat, Strain/Sex: Fischer 344 CD-F/Male (60/Group), Route: Oral, Dose: 0, 10, 300, 1000 ppm of 96.1% fluometuron in diet for 2 yr, study duration 2 yr, Dose: 0, 10, 300, 1000 ppm of 96.1% fluometuron in diet for 2 yr, study duration 2 yr).
As to `O[C@@H]1C=Cc2c(ccc3cc4ccc5ccccc5c4nc23)[C@H]1O`, the carcinogen call was “active; positive” (Species: MOUSE, Strain/Sex: CD-1/FEMALE, Route: INTRAPERITONEAL, Dose: 0, 175 NMOL (TOTAL DOSE) ADMINISTERED AS 1/7 OF DOSE WITHIN 24 HR AFTER BIRTH, 2/7 OF DOSE AT 8 D OLD, 4/7 OF DOSE AT 15, Tumor Site: Type of Lesion: LUNG: TUMOR) and “active; positive” (Species: MOUSE, Strain/Sex: CD-1/MALE, Route: INTRAPERITONEAL, Dose: 0, 175 NMOL (TOTAL DOSE) ADMINISTERED AS 1/7 OF DOSE WITHIN 24 HR AFTER BIRTH, 2/7 OF DOSE AT 8 D OLD, 4/7 OF DOSE AT 15, Tumor Site: Type of Lesion: LIVER: TUMOR, LUNG: TUMOR).
For `NC(N)=NC(N)=NCCc1ccccc1`, the carcinogen call (Species: MOUSE, Strain/Sex: B6C3F1/FEMALE, Route: ORAL, Dose: 0, 1200, 2500 PPM IN DIET, Dose: 0, 1200, 2500 PPM IN DIET) was “inactive; negative”; the carcinogen call (Species: MOUSE, Strain/Sex: B6C3F1/MALE, Route: ORAL, Dose: 0, 1200, 2500 PPM IN DIET, Dose: 0, 1200, 2500 PPM IN DIET) is “inactive; negative”; the carcinogen call (Species: RAT, Strain/Sex: F344/FEMALE, Route: ORAL, Dose: 0, 15000, 30000 PPM IN DIET, Dose: 0, 15000, 30000 PPM IN DIET) is “inactive; negative”; the carcinogen call (Species: RAT, Strain/Sex: F344/MALE, Route: ORAL, Dose: 0, 15000, 30000 PPM IN DIET, Dose: 0, 15000, 30000 PPM IN DIET) is “inactive; negative”.
For the molecule `O=[N+]([O-])c1cccc2cccnc12`, the carcinogen call (Species: RAT, Strain/Sex: F344/MALE,FEMALE, Route: ORAL, Dose: 0.1% IN DIET FOR 2 YR, Tumor Site: Type of Lesion: FORESTOMACH: SQUAMOUS CELL PAPILLOMA, CARCINOMA) is “active; positive”.
Consider `CCOC(OCC)C(=O)c1ccccc1`, for which the carcinogen call by setting is: (Species: MOUSE, Strain/Sex: C3H/HEJ/MALE, Route: DERMAL, Dose: 0, 11.3 MG AS A 50% DILUTION IN ACETONE 3/WK FOR LIFESPAN (STUDY DURATION: LIFESPAN)) “inactive; negative”; (Species: MOUSE, Strain/Sex: C3H/HEJ/MALE, Route: DERMAL, Dose: 0, 25 MG UNDILUTED 3/WK FOR LIFESPAN (STUDY DURATION: LIFESPAN)) “inactive; negative”.
Turning to `O=P(OCC(Br)CBr)(OCC(Br)CBr)OCC(Br)CBr` (configuration not stated), the carcinogen call is “active; positive” (Species: MOUSE, Strain/Sex: B6C3F1/FEMALE, Route: ORAL, Dose: 0, 500, 1000 PPM IN DIET, Dose: 0, 500, 1000 PPM IN DIET, Tumor Site: Type of Lesion: STOMACH: SQUAMOUS CELL PAPILLOMA OR CARCINOMA, LUNG: ALVEOLAR/BRONCHIOLAR ADENOMA OR CARCINOMA, LIVER: HEPATOCELLULAR AD, Tumor Site: Type of Lesion: STOMACH: SQUAMOUS CELL PAPILLOMA OR CARCINOMA, LUNG: ALVEOLAR/BRONCHIOLAR ADENOMA OR CARCINOMA, LIVER: HEPATOCELLULAR AD); “active; positive” (Species: MOUSE, Strain/Sex: B6C3F1/MALE, Route: ORAL, Dose: 0, 500, 1000 PPM IN DIET, Dose: 0, 500, 1000 PPM IN DIET, Tumor Site: Type of Lesion: STOMACH: SQUAMOUS CELL PAPILLOMA OR CARCINOMA, LUNG: ALVEOLAR/BRONCHIOLAR ADENOMA OR CARCINOMA); “active; positive” (Species: RAT, Strain/Sex: F344/FEMALE, Route: ORAL, Dose: 0, 50, 100 PPM IN DIET, Dose: 0, 50, 100 PPM IN DIET, Tumor Site: Type of Lesion: KIDNEY: TUBULAR CELL ADENOMA); “active; positive” (Species: RAT, Strain/Sex: F344/MALE, Route: ORAL, Dose: 0, 50, 100 PPM IN DIET, Dose: 0, 50, 100 PPM IN DIET, Tumor Site: Type of Lesion: KIDNEY: TUBULAR CELL ADENOMA OR ADENOCARCINOMA).
